This note sets out measurements from PubChem BioAssay AID248 (DTP/NCI, 2004).

Where “and” joins values, the source holds several entries; their conditions need not be identical. Identical values can stand only once. Toxic doses and inconclusive results are not listed.

The test system of this assay is L1210 leukemia ip in BDF1 mice, survival T/C. Put plainly: NCI In Vivo Anticancer Drug Screen. Data for tumor model L1210 Leukemia (intraperitoneal) in B6D2F1 (BDF1) mice. The conditions noted are these: endpoint: mean survival time, higher = longer survival. Summed up:
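Ratio derived from survival: compound-dosed mice over vehicle-dosed mice, all bearing a transplantable tumor.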

Setting [1] is: dose: 100.0 mg/kg/injection, schedule: Q04DX002 (ip), vehicle: Klucel (hydroxypropylcellulose) (HPC).
Where [2] appears, read: dose: 200.0 mg/kg/injection, schedule: Q04DX002 (ip), vehicle: Klucel (hydroxypropylcellulose) (HPC).
Where [3] appears, read: dose: 100.0 mg/kg/injection, schedule: Q01DX009 (ip), vehicle: saline with Tween-80.
The mark [4] stands for this setting: dose: 100.0 mg/kg/injection, schedule: Q04DX003 (ip), vehicle: saline with Tween-80.
Setting [5] is: dose: 200.0 mg/kg/injection, schedule: Q01DX009 (ip), vehicle: saline with Tween-80.
Setting [6] is: dose: 200.0 mg/kg/injection, schedule: Q04DX003 (ip), vehicle: saline with Tween-80.
The mark [7] stands for this setting: dose: 400.0 mg/kg/injection, schedule: Q01DX009 (ip), vehicle: saline with Tween-80.
Where [8] appears, read: dose: 400.0 mg/kg/injection, schedule: Q04DX003 (ip), vehicle: saline with Tween-80.
Setting [9] is: dose: 100.0 mg/kg/injection, schedule: Q01DX001 (ip), vehicle: saline.
[10] abbreviates: dose: 200.0 mg/kg/injection, schedule: Q01DX001 (ip), vehicle: saline.
Where [11] appears, read: dose: 400.0 mg/kg/injection, schedule: Q01DX001 (ip), vehicle: saline.
The mark [12] stands for this setting: dose: 100.0 mg/kg/injection, schedule: Q04DX003 (ip), vehicle: Klucel (hydroxypropylcellulose) (HPC).
The mark [13] stands for this setting: dose: 200.0 mg/kg/injection, schedule: Q04DX003 (ip), vehicle: Klucel (hydroxypropylcellulose) (HPC).
Where [14] appears, read: dose: 400.0 mg/kg/injection, schedule: Q04DX003 (ip), vehicle: Klucel (hydroxypropylcellulose) (HPC).
Where [15] appears, read: dose: 100.0 mg/kg/injection, schedule: Q01DX001 (ip), vehicle: Klucel (hydroxypropylcellulose) (HPC).
[16] abbreviates: dose: 200.0 mg/kg/injection, schedule: Q01DX001 (ip), vehicle: Klucel (hydroxypropylcellulose) (HPC).
Setting [17] is: dose: 400.0 mg/kg/injection, schedule: Q01DX001 (ip), vehicle: Klucel (hydroxypropylcellulose) (HPC).
[18] abbreviates: dose: 100.0 mg/kg/injection, schedule: Q01DX009 (ip), vehicle: Klucel (hydroxypropylcellulose) (HPC).
Where [19] appears, read: dose: 200.0 mg/kg/injection, schedule: Q01DX009 (ip), vehicle: Klucel (hydroxypropylcellulose) (HPC).

On to `CN(C)[C@@H]1C(=O)C(C(=O)NCc2nc3[nH]cnc(=S)c3[nH]2)=C(O)[C@@]2(O)C(=O)C3=C(O)c4c(O)cccc4[C@@](C)(O)[C@H]3C[C@@H]12`, for which the T/C is 107 % of control (dose: 16.0 mg/kg/injection, schedule: Q01DX Z (ip), vehicle: carboxymethylcellulose (CMC)); 119 % of control (dose: 32.0 mg/kg/injection, schedule: Q01DX Z (ip), vehicle: carboxymethylcellulose (CMC)); 103 % of control (dose: 56.0 mg/kg/injection, schedule: Q01DX Z (ip), vehicle: carboxymethylcellulose (CMC)); 112 % of control (dose: 64.0 mg/kg/injection, schedule: Q01DX Z (ip), vehicle: carboxymethylcellulose (CMC)); 150 % of control (dose: 128.0 mg/kg/injection, schedule: Q01DX Z (ip), vehicle: carboxymethylcellulose (CMC)); 179 % of control (dose: 192.0 mg/kg/injection, schedule: Q01DX Z (ip), vehicle: carboxymethylcellulose (CMC)).
On to `CC(C)COC(=O)c1ccc(NC(=O)Nc2ccc(F)cc2)cc1`, for which the T/C runs as follows: (dose: 100.0 mg/kg/injection, schedule: Q01DX001 (ip), vehicle: carboxymethylcellulose (CMC)) 99 % of control; (dose: 100.0 mg/kg/injection, schedule: Q01DX009 (ip), vehicle: carboxymethylcellulose (CMC)) 92 % of control and 97 % of control; (dose: 100.0 mg/kg/injection, schedule: Q04DX002 (ip), vehicle: carboxymethylcellulose (CMC)) 93 % of control and 103 % of control; (dose: 100.0 mg/kg/injection, schedule: Q04DX003 (ip), vehicle: carboxymethylcellulose (CMC)) 96 % of control; (dose: 200.0 mg/kg/injection, schedule: Q01DX001 (ip), vehicle: carboxymethylcellulose (CMC)) 87 % of control; (dose: 200.0 mg/kg/injection, schedule: Q01DX009 (ip), vehicle: carboxymethylcellulose (CMC)) 100 % of control and 90 % of control. Further, the T/C (dose: 200.0 mg/kg/injection, schedule: Q04DX002 (ip), vehicle: carboxymethylcellulose (CMC)) is 92 % of control and 91 % of control; the T/C (dose: 200.0 mg/kg/injection, schedule: Q04DX003 (ip), vehicle: carboxymethylcellulose (CMC)) is 96 % of control; the T/C (dose: 400.0 mg/kg/injection, schedule: Q01DX001 (ip), vehicle: carboxymethylcellulose (CMC)) is 96 % of control; the T/C (dose: 400.0 mg/kg/injection, schedule: Q01DX009 (ip), vehicle: carboxymethylcellulose (CMC)) is 100 % of control; the T/C (dose: 400.0 mg/kg/injection, schedule: Q04DX002 (ip), vehicle: carboxymethylcellulose (CMC)) was 100 % of control and 102 % of control; the T/C (dose: 400.0 mg/kg/injection, schedule: Q04DX003 (ip), vehicle: carboxymethylcellulose (CMC)) was 95 % of control.
As for `COc1ccc(C(C)(O)c2cc3ccccc3n2S(=O)(=O)c2ccccc2)cc1` (stereo unspecified), the T/C is, setting by setting: (dose: 50.0 mg/kg/injection, schedule: Q04DX002 (ip), vehicle: Klucel (hydroxypropylcellulose) (HPC)) 102 % of control; under setting [1], 95 % of control; under setting [2], 95 % of control.
`CCOC(=O)CCC(C)(C#N)c1ccccc1` (stereo unspecified): the T/C by setting is: under setting [3], 104 % of control; under setting [4], 108 % of control; under setting [5], 98 % of control; under setting [6], 99 % of control; under setting [7], 97 % of control; under setting [8], 106 % of control.
Turning to `O=C(NC1CCCCC1)NC1CCCCC1`, the T/C reads like this: under setting [3], 95 % of control; under setting [5], 88 % of control; under setting [7], 87 % of control.
Take `c1cc2[nH]c1C1(CCCC1)c1ccc([nH]1)C1(CCCC1)c1ccc([nH]1)C1(CCCC1)c1ccc([nH]1)C21CCCC1`: the T/C is 102 % of control under setting [9], 103 % of control under setting [10] and 94 % of control under setting [11].
For the compound `COc1ccc(C(=O)NCCBr)cc1[N+](=O)[O-]`, the T/C under setting [9] is 108 % of control; the T/C under setting [12] is 97 % of control; the T/C under setting [10] is 103 % of control; the T/C under setting [13] is 101 % of control; the T/C under setting [11] is 98 % of control; the T/C under setting [14] was 111 % of control.
As to `CCCCCCCCCCCCCOc1ccc2ccccc2c1`, the T/C was 326 % of control under setting [15], 165 % of control under setting [16] and 92 % of control under setting [17].
Turning to `O=C1OC(c2ccc(Cl)cc2)Sc2ccccc21` (stereo unspecified), the T/C reads like this: under setting [4], 103 % of control; under setting [6], 94 % of control; under setting [8], 100 % of control.
For `CC1(OC(=O)c2ccccc2)C2C=CC1C1C(=O)NC12` (stereo unspecified), the T/C was 87 % of control under setting [18]; 106 % of control under setting [12]; 102 % of control under setting [19]; 102 % of control under setting [13]; 104 % of control (dose: 400.0 mg/kg/injection, schedule: Q01DX009 (ip), vehicle: Klucel (hydroxypropylcellulose) (HPC)); 96 % of control under setting [14].
With `O=P1(NCCCl)OCCC(OO)N1CCCl` (stereo unspecified), the T/C was 155 % of control (dose: 15.0 mg/kg/injection, schedule: Q01DX001 (ip), vehicle: Klucel (hydroxypropylcellulose) (HPC)); 158 % of control (dose: 23.0 mg/kg/injection, schedule: Q01DX001 (ip), vehicle: Klucel (hydroxypropylcellulose) (HPC)); 175 % of control (dose: 34.0 mg/kg/injection, schedule: Q01DX001 (ip), vehicle: Klucel (hydroxypropylcellulose) (HPC)); 188 % of control and 196 % of control (dose: 50.0 mg/kg/injection, schedule: Q01DX001 (ip), vehicle: Klucel (hydroxypropylcellulose) (HPC)); 276 % of control (dose: 75.0 mg/kg/injection, schedule: Q01DX001 (ip), vehicle: Klucel (hydroxypropylcellulose) (HPC)); 182 % of control under setting [15]. Moreover, the T/C runs as follows: under setting [16], 196 % of control; under setting [17], 95 % of control.
Consider `c1ccc(CN2C3CCCC2CC(c2ccccc2)C3)cc1` (stereo unspecified), for which the T/C was 92 % of control under setting [1] and 87 % of control under setting [2].
For the compound `CC(=O)OCC1OC(N2C(=O)/C(=C/c3cccnc3)SC2=S)C(OC(C)=O)C(OC(C)=O)C1OC(C)=O` (stereo unspecified), the T/C is 94 % of control (dose: 25.0 mg/kg/injection, schedule: Q01DX005 (ip), vehicle: other); 96 % of control (dose: 50.0 mg/kg/injection, schedule: Q01DX005 (ip), vehicle: other); 96 % of control (dose: 100.0 mg/kg/injection, schedule: Q01DX005 (ip), vehicle: other); 105 % of control (dose: 200.0 mg/kg/injection, schedule: Q01DX005 (ip), vehicle: other).
As for `Cc1ccc(NC(=O)Nc2cccc(O)c2)c([N+](=O)[O-])c1`, the T/C (dose: 50.0 mg/kg/injection, schedule: Q01DX009 (ip), vehicle: Klucel (hydroxypropylcellulose) (HPC)) was 98 % of control; the T/C under setting [18] is 102 % of control; the T/C under setting [12] is 103 % of control; the T/C under setting [19] is 98 % of control; the T/C under setting [13] is 106 % of control; the T/C under setting [14] is 103 % of control.
Regarding `Cc1ccc(NNP(Cl)(c2ccccc2)(c2ccccc2)c2ccccc2)cc1`, the T/C is 92 % of control (dose: 50.0 mg/kg/injection, schedule: Q01DX001 (ip), vehicle: saline) and 97 % of control under setting [9].
For `CCCCCCCC(C(=O)O)C(C)C` (stereo unspecified), the T/C (dose: 100.0 mg/kg/injection, schedule: Q01DX001 (ip), vehicle: saline with Tween-80) was 94 % of control; the T/C (dose: 200.0 mg/kg/injection, schedule: Q01DX001 (ip), vehicle: saline with Tween-80) is 106 % of control; the T/C (dose: 400.0 mg/kg/injection, schedule: Q01DX001 (ip), vehicle: saline with Tween-80) was 105 % of control.
